# Patent US8158628B2, “Sulfonylated 1,2,3,4-tetrahydropyrrolo[1,2-a]pyrazine compounds and their use as pharmaceuticals” (Gruenenthal GmbH, priority 2009, dated 2012)
# Experiments:
# [1] = target: T1, human B1R (Homo sapiens, UniProt P46663); assay: FLIPR Ca2+ functional assay, B1R antagonism, human B1R in CHO K1 cells; assay type: cell-based; conditions: test substance 10 μM; hB1R CHO K1 cells; agonist Lys-Des-Arg9 bradykinin at EC80; % of maximum achievable inhibition
# T1 construct: expressed in transfected cells; host or cells: CHO K1 cells (Chinese hamster ovary), stably transfected
# T1 sequence (P46663 1-353): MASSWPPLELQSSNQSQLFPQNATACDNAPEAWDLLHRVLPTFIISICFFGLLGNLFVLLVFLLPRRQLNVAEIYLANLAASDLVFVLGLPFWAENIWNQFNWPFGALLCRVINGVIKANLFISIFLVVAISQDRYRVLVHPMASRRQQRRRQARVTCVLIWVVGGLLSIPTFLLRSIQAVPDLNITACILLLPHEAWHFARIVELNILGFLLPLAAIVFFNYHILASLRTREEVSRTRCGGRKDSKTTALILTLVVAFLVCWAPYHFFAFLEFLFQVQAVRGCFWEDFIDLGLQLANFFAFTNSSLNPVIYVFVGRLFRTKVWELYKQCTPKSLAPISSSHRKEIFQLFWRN
# How it was run: (§1)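 IC50 values come from varied compound concentrations applied 10-20 min before an EC80 agonist challenge, with Des-Arg9 bradykinin for rat and Lys-Des-Arg9 bradykinin for human receptor. Ca2+ influx in Fluo-4-loaded CHO K1 transfectants was measured by FLIPR peak fluorescence. Data are % inhibition vs maximum, n=2-3, N>=2.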
# [2] = target: T2, B1R of the rat (Rattus norvegicus, UniProt P97583); assay: FLIPR Ca2+ functional assay, B1R antagonism, rat B1R in CHO K1 cells; assay type: cell-based; conditions: test substance 10 μM; rB1R CHO K1 cells; agonist Des-Arg9 bradykinin at EC80; % of maximum achievable inhibition
# T2 construct: expressed in transfected cells; host or cells: CHO K1 cells (Chinese hamster ovary), stably transfected
# T2 sequence (P97583 1-337): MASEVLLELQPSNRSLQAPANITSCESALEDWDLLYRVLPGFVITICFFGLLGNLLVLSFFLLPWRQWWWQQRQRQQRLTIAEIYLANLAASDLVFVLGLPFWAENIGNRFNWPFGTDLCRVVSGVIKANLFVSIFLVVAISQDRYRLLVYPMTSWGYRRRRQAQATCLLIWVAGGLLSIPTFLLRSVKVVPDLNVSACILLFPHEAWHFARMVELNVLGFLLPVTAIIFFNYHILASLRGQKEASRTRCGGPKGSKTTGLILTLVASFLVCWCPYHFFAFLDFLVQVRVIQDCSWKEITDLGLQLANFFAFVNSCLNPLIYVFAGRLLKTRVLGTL
# How it was run: as §1
Compound,inhibition at 10 µM [1] [%],inhibition at 10 µM [2] [%]
"Cc1ccc(S(=O)(=O)N2CCn3cccc3C2CC(=O)NC2CCc3cc(CN(C)C)ccc3C2)cc1Cl (centres unmarked) [Example 115, 2-[2-[(3-Chloro-4-methyl-phenyl)sulfonyl]-1,2,3,4-tetrahydro-pyrrolo[1,2-a]pyrazin-1-yl]-N-[6-(dimethylaminomethyl)-1,2,3,4-tetrahydro-naphthalen-2-yl]-acetamide]",99.8,102
"CN(Cc1ccc2c(c1)CCC(NC(=O)CC1c3cccn3CCN1S(=O)(=O)c1cccc(C(F)(F)F)c1)C2)C(C)(C)C (centres unmarked) [Example 116, N-[6-[(tert-Butyl-methyl-amino)-methyl]-1,2,3,4-tetrahydro-naphthalen-2-yl]-2-[2-[[3-(trifluoromethyl)phenyl]sulfonyl]-1,2,3,4-tetrahydro-pyrrolo[1,2-a]pyrazin-1-yl]-acetamide]",99.8,102
"COc1ccc2cc(S(=O)(=O)N3CCn4cccc4C3CC(=O)NC3CCCc4cc(CN5CCN(C)CC5)ccc43)ccc2c1 (centres unmarked) [Example 117, 2-[2-[(6-Methoxy-naphthalen-2-yl)sulfonyl]-1,2,3,4-tetrahydro-pyrrolo[1,2-a]pyrazin-1-yl]-N-[6-[(4-methyl-piperazin-1-yl)-methyl]-1,2,3,4-tetrahydro-naphthalen-1-yl]-acetamide]",100,98.8
"COc1ccc2cc(S(=O)(=O)N3CCn4cccc4C3CC(=O)NC3CCc4cc(CN5CCOCC5)ccc4C3)ccc2c1 (centres unmarked) [Example 118, 2-[2-[(6-Methoxy-naphthalen-2-yl)sulfonyl]-1,2,3,4-tetrahydro-pyrrolo[1,2-a]pyrazin-1-yl]-N-[6-(morpholin-4-yl-methyl)-1,2,3,4-tetrahydro-naphthalen-2-yl]-acetamide]",100,102
"Cc1ccc(S(=O)(=O)N2CCn3cccc3C2CC(=O)NC2CCCc3cc(CN4CCCc5ccccc54)ccc32)cc1Cl (centres unmarked) [Example 119, 2-[2-[(3-Chloro-4-methyl-phenyl)sulfonyl]-1,2,3,4-tetrahydro-pyrrolo[1,2-a]pyrazin-1-yl]-N-[6-(1,2,3,4-tetrahydro-quinolin-1-yl-methyl)-1,2,3,4-tetrahydro-naphthalen-1-yl]-acetamide]",23.4,62.2
"COc1ccc2cc(S(=O)(=O)N3CCn4cccc4C3CC(=O)NC3CCCc4cc(CN5CCOCC5)ccc43)ccc2c1 (centres unmarked) [Example 120, 2-[2-[(6-Methoxy-naphthalen-2-yl)sulfonyl]-1,2,3,4-tetrahydro-pyrrolo[1,2-a]pyrazin-1-yl]-N-[6-(morpholin-4-yl-methyl)-1,2,3,4-tetrahydro-naphthalen-1-yl]-acetamide]",97.8,102
"CCC(C)NCc1ccc2c(c1)CCC(NC(=O)CC1c3cccn3CCN1S(=O)(=O)c1ccc3cc(OC)ccc3c1)C2 (centres unmarked) [Example 121, 2-[2-[(6-Methoxy-naphthalen-2-yl)sulfonyl]-1,2,3,4-tetrahydro-pyrrolo[1,2-a]pyrazin-1-yl]-N-[6-[(1-methyl-propylamino)-methyl]-1,2,3,4-tetrahydro-naphthalen-2-yl]-acetamide]",99.9,99.5
"Cc1ccc(S(=O)(=O)N2CCn3cccc3C2CC(=O)NC2CCc3cc(CNC(C)(C)C)ccc3C2)cc1 (centres unmarked) [Example 122, N-[6-[(tert-Butylamino)-methyl]-1,2,3,4-tetrahydro-naphthalen-2-yl]-2-[2-(p-tolylsulfonyl)-1,2,3,4-tetrahydro-pyrrolo[1,2-a]pyrazin-1-yl]-acetamide]",99.6,101
"Cc1ccc(S(=O)(=O)N2CCn3cccc3C2CC(=O)NC2CCc3cc(CN4CCCC4)ccc3C2)cc1 (centres unmarked) [Example 123, 2-[2-(p-Tolylsulfonyl)-1,2,3,4-tetrahydro-pyrrolo[1,2-a]pyrazin-1-yl]-N-[6-(pyrrolidin-1-yl-methyl)-1,2,3,4-tetrahydro-naphthalen-2-yl]-acetamide]",100,101
"CN(C)Cc1ccc2c(c1)CCCC2NC(=O)CC1c2cccn2CCN1S(=O)(=O)c1cccc(C(F)(F)F)c1 (centres unmarked) [Example 124, N-[6-(Dimethylaminomethyl)-1,2,3,4-tetrahydro-naphthalen-1-yl]-2-[2-[[3-(trifluoromethyl)phenyl]sulfonyl]-1,2,3,4-tetrahydro-pyrrolo[1,2-a]pyrazin-1-yl]-acetamide]",99.7,97.3

# Now from value to molecule:
inhibition at 10 µM [1] [%],inhibition at 10 µM [2] [%],Compound
99.6,99.1,"CCC(C)NCc1ccc2c(c1)CCCC2NC(=O)CC1c2cccn2CCN1S(=O)(=O)c1ccc2cc(OC)ccc2c1 (centres unmarked) [Example 125, 2-[2-[(6-Methoxy-naphthalen-2-yl)sulfonyl]-1,2,3,4-tetrahydro-pyrrolo[1,2-a]pyrazin-1-yl]-N-[6-[(1-methyl-propylamino)-methyl]-1,2,3,4-tetrahydro-naphthalen-1-yl]-acetamide]"
99.9,102,"CCC(C)NCc1ccc2c(c1)CCCC2NC(=O)CC1c2cccn2CCN1S(=O)(=O)c1ccc(C)cc1 (centres unmarked) [Example 126, N-[6-[(1-Methyl-propylamino)-methyl]-1,2,3,4-tetrahydro-naphthalen-1-yl]-2-[2-(p-tolylsulfonyl)-1,2,3,4-tetrahydro-pyrrolo[1,2-a]pyrazin-1-yl]-acetamide]"
97.4,101,"Cc1ccc(S(=O)(=O)N2CCn3cccc3C2CC(=O)NC2CCCc3cc(CNCc4ccccc4)ccc32)cc1 (centres unmarked) [Example 127, N-[6-[(Benzylamino)-methyl]-1,2,3,4-tetrahydro-naphthalen-1-yl]-2-[2-(p-tolylsulfonyl)-1,2,3,4-tetrahydro-pyrrolo[1,2-a]pyrazin-1-yl]-acetamide]"
99.8,103,"COc1ccc2cc(S(=O)(=O)N3CCn4cccc4C3CC(=O)NC3CCCc4cc(CN5CCCCC5)ccc43)ccc2c1 (centres unmarked) [Example 128, 2-[2-[(6-Methoxy-naphthalen-2-yl)sulfonyl]-1,2,3,4-tetrahydro-pyrrolo[1,2-a]pyrazin-1-yl]-N-[6-(piperidin-1-yl-methyl)-1,2,3,4-tetrahydro-naphthalen-1-yl]-acetamide]"
46.1,74.7,"Cc1ccc(S(=O)(=O)N2CCn3cccc3C2CC(=O)NC2CCCc3cc(CN4CCCc5ccccc54)ccc32)cc1 (centres unmarked) [Example 129, 2-[2-(p-Tolylsulfonyl)-1,2,3,4-tetrahydro-pyrrolo[1,2-a]pyrazin-1-yl]-N-[6-(1,2,3,4-tetrahydro-quinolin-1-yl-methyl)-1,2,3,4-tetrahydro-naphthalen-1-yl]-acetamide]"
73.6,98.8,"COc1ccc2cc(S(=O)(=O)N3CCn4cccc4C3CC(=O)NC3CCCc4cc(CN5CCCc6ccccc65)ccc43)ccc2c1 (centres unmarked) [Example 130, 2-[2-[(6-Methoxy-naphthalen-2-yl)sulfonyl]-1,2,3,4-tetrahydro-pyrrolo[1,2-a]pyrazin-1-yl]-N-[6-(1,2,3,4-tetrahydro-quinolin-1-yl-methyl)-1,2,3,4-tetrahydro-naphthalen-1-yl]-acetamide]"
